The source of these data is patent US20030008814A1, “Pseudomycin phosphate prodrugs” (priority 2002, published 2003).

The data set is described as follows: Tail vein toxicity. To be noted: male ICR mice, IV lateral tail vein, 20 mg/kg at 0, 24, 48 and 72 hours, monitored 7 days; in comparison to pseudomycin B. The class given is in vivo. The protocol:
Mice were treated intravenously (IV) through the lateral tail vein with 0.1 ml of testing compound (20 mg/kg) at 0, 24, 48 and 72 hours. Two mice were included in each group. Compounds were formulated in 5.0% dextrose and sterile water for injection. The mice were monitored for 7 days following the first treatment and observed closely for signs of irritation including erythema, swelling, discoloration, necrosis, tail loss and any other signs of adverse effects indicating toxicity.
The mice used in the study were outbred, male ICR mice having an average weight between 18-20 g (available from Harlan Sprangue Dawley, Indianapolis, Ind.

For `C/C=C1\NC(=O)[C@H]([C@H](C)O)NC(=O)[C@H](CCNC(=O)OCc2ccc(OP(=O)(OCc3ccccc3)OCc3ccccc3)cc2)NC(=O)[C@H](CCCCNC(=O)OCc2ccc(OP(=O)(OCc3ccccc3)OCc3ccccc3)cc2)NC(=O)[C@H](CC(=O)O)NC(=O)[C@@H](CCNC(=O)OCc2ccc(OP(=O)(OCc3ccccc3)OCc3ccccc3)cc2)NC(=O)[C@@H](NC(=O)CC(O)CCCCCCCCCCC)COC(=O)[C@H]([C@H](O)CCl)NC(=O)[C@H](C(O)C(=O)O)NC1=O` (stereo partly shown) [Compound 1A-1], the tail vein toxicity result is recorded as “improvement in tail vein toxicity”.
